# Experimental data as given in patent US20030109702A1, “Pyrazolyl benzyl ethers” (priority 1999, published 2003).
# Test system: Meloidogyne incognita
# Assay: Meloidogyne test
# Type: in vivo
# Settings: lettuce in sand, concentration of active compound 20 ppm
# Experimental: [table] To produce a suitable preparation of active compound, 1 part by weight of active compound is mixed with the stated amounts of solvent and emulsifier, and the concentrate is diluted with water to the desired concentration. Containers are filled with sand, solution of active compound, Meloidogyne incognita egg/larvae suspension and lettuce seeds. The lettuce seeds germinate and the plants develop. On the roots, galls are formed. After the desired period of time, the nematicidal action is determined in % via the formation of galls. 100% means that no galls were found; 0% means that the number of galls on the treated plants corresponds to that on the untreated control.
row,Compound,kill rate (nematicidal action via the formation of galls)
1,"CON=C(C1=NOCCO1)c1ccccc1COc1ccn(-c2ccc(Cl)cc2)n1 [Example 1, [2-({[1-(4-chlorophenyl)-1H-pyrazol-3-yl]oxy}methyl)phenyl](5,6-dihydro-1,4,2-dioxazin-3-yl)methanone O-methyl oxime]",100%
2,CON=C(C1=NOCCO1)c1ccccc1COc1ccn(-c2ccc(C#N)cc2)n1 [Example 12],100%

# Test system: not listed separately
# Assay: physchem
# Settings: not given
row,Compound,chromatographic logP
1,CON=C(C1=NOCCO1)c1ccccc1COc1ccn(-c2ccccc2Br)n1 [Example 2],3.21
2,CON=C(C1=NOCCO1)c1ccccc1COc1ccn(-c2ccc(Br)cc2)n1 [Example 3],3.67
3,CON=C(C1=NOCCO1)c1ccccc1COc1ccn(-c2ccc(F)cc2)n1 [Example 4],3.15
4,CON=C(C1=NOCCO1)c1ccccc1COc1ccn(-c2ccc(C)cc2)n1 [Example 5],3.4
5,CON=C(C1=NOCCO1)c1ccccc1COc1ccn(-c2ccc(Cl)c(Cl)c2)n1 [Example 6],4.02
6,CON=C(C1=NOCCO1)c1ccccc1COc1ccn(-c2cc(Cl)cc(Cl)c2)n1 [Example 7],4.24
7,CON=C(C1=NOCCO1)c1ccccc1COc1ccn(-c2cccc(Cl)c2)n1 [Example 8],3.59
8,CON=C(C1=NOCCO1)c1ccccc1COc1ccn(-c2ccccc2Cl)n1 [Example 9],3.2
9,CON=C(C1=NOCCO1)c1ccccc1COc1ccn(-c2cccc(Br)c2)n1 [Example 10],3.68
10,CON=C(C1=NOCCO1)c1ccccc1COc1ccn(-c2ccccc2C)n1 [Example 11],3.15
11,CON=C(C1=NOCCO1)c1ccccc1COc1ccn(-c2ccc(C#N)cc2)n1 [Example 12],2.89
12,CON=C(C1=NOCCO1)c1ccccc1COc1ccn(-c2ccccc2)n1 [Example 13],3.06
13,CON=C(C1=NOCCO1)c1ccccc1COc1ccn(-c2ccc(Cl)cc2Cl)n1 [Example 14],3.78
14,CON=C(C1=NOCCO1)c1ccccc1COc1ccn(-c2ccc(C(C)(C)C)cc2)n1 [Example 15],4.33
15,CON=C(C1=NOCCO1)c1ccccc1COc1ccn(-c2ccc(C(C)C)cc2)n1 [Example 16],4.08
16,CON=C(C1=NOCCO1)c1ccccc1COc1ccn(-c2c(Cl)cccc2Cl)n1 [Example 17],4.08
17,CON=C(C1=NOCCO1)c1ccccc1COc1ccn(-c2cccc(Cl)c2Cl)n1 [Example 18],3.59
18,CON=C(C1=NOCCO1)c1ccccc1COc1ccn(-c2ccc(F)cc2F)n1 [Example 19],3.28
19,CON=C(C1=NOCCO1)c1ccccc1COc1ccn(-c2ccccc2F)n1 [Example 20],3.19
20,CON=C(C1=NOCCO1)c1ccccc1COc1ccn(-c2cccc(F)c2)n1 [Example 21],3.24
21,CON=C(C1=NOCCO1)c1ccccc1COc1ccn(-c2cc(C)ccc2C)n1 [Example 22],3.52
22,CON=C(C1=NOCCO1)c1ccccc1COc1ccn(-c2c(Cl)cc(Cl)cc2Cl)n1 [Example 24],3.74
23,CON=C(C1=NOCCO1)c1ccccc1COc1ccn(-c2ccc(C)cc2C)n1 [Example 25],3.5
24,CCc1ccccc1-n1ccc(OCc2ccccc2C(=NOC)C2=NOCCO2)n1 [Example 26],3.47
25,CON=C(C1=NOCCO1)c1ccccc1COc1ccn(-c2cc(Cl)ccc2Cl)n1 [Example 27],3.74
26,CON=C(C1=NOCCO1)c1ccccc1COc1ccn(-c2cccc(C)c2C)n1 [Example 28],3.68

# More lines, now with the values ahead:
row,chromatographic logP,Compound
1,3.68,CON=C(C1=NOCCO1)c1ccccc1COc1ccn(-c2ccc(C)c(C)c2)n1 [Example 29]
2,3.79,CON=C(C1=NOCCO1)c1ccccc1COc1ccn(-c2cc(C)cc(C)c2)n1 [Example 30]
3,3.51,CON=C(C1=NOCCO1)c1ccccc1COc1ccn(-c2cccc3ccccc23)n1 [Example 31]
4,3.11,CON=C(C1=NOCCO1)c1ccccc1COc1ccn(Cc2cccc(C)c2)n1 [Example 32]
5,3.97,CON=C(C1=NOCCO1)c1ccccc1COc1ccn(Cc2ccc(C(C)(C)C)cc2)n1 [Example 33]
6,2.79,CON=C(C1=NOCCO1)c1ccccc1COc1ccn(Cc2ccccc2)n1 [Example 35]
7,3.19,CON=C(C1=NOCCO1)c1ccccc1COc1ccn(Cc2ccc(Cl)cc2)n1 [Example 36]
8,3,CON=C(C1=NOCCO1)c1ccccc1COc1ccn(-c2ccc(OC)cc2)n1 [Example 39]
9,3.76,CCc1ccc(-n2ccc(OCc3ccccc3C(=NOC)C3=NOCCO3)n2)cc1 [Example 42]
10,3.43,CCOc1ccccc1-n1ccc(OCc2ccccc2C(=NOC)C2=NOCCO2)n1 [Example 43]
11,2.61,C=CCn1ccc(OCc2ccccc2C(=NOC)C2=NOCCO2)n1 [Example 44]
12,3.84,CON=C(C1=NOCCO1)c1ccccc1COc1ccn(-c2ccc(I)cc2)n1 [Example 46]
13,2.87,CON=C(C1=NOCCO1)c1ccccc1COc1ccn(-c2ccccc2OC)n1 [Example 48]
14,3.52,CON=C(C1=NOCCO1)c1ccccc1COc1ccn(CC2CCCCC2)n1 [Example 334]

# Test system: green peach aphid (Myzus persicae)
# Assay: Myzus test
# Type: in vivo
# Settings: broad bean seedlings dipped, concentration of active compound 1000 ppm
# Experimental: [table] To produce a suitable preparation of active compound, 1 part by weight of active compound is mixed with the stated amount of solvent and the stated amount of emulsifier, and the concentrate is diluted with emulsifier-containing water to the desired concentrations. Broad bean seedlings (Vicia faba) infested by the green peach aphid (Myzus persicae) are dipped into a preparation of active compound of the desired concentration and placed into a dish made of plastic. After the desired period of time, the kill in % is determined. 100% means that all of the animals have been killed; 0% means that none of the animals have been killed.
row,Compound,kill rate
1,"CON=C(C1=NOCCO1)c1ccccc1COc1ccn(-c2ccc(Cl)cc2)n1 [Example 1, [2-({[1-(4-chlorophenyl)-1H-pyrazol-3-yl]oxy}methyl)phenyl](5,6-dihydro-1,4,2-dioxazin-3-yl)methanone O-methyl oxime]",90%
